According to patent publication US6949542B2, “Dihydro-benzo[b][1,4]diazepin-2-one derivatives” (Hoffman-La Roche Inc., priority 2002, dated 2005):

Row | melting point | Structure (SMILES)
1 | 229 °C | O=C1CC(c2cccc(-c3ccnc(C(F)(F)F)c3)c2)=Nc2cc(Cl)c(C(F)(F)F)cc2N1 [Example 266, 7-Chloro-8-trifluoromethyl-4-[3-(2-trifluoromethyl-pyridin-4-yl)-phenyl]-1,3-dihydro-benzo[b][1,4]diazepin-2-one]
2 | 202 °C | CCOc1cc2c(cc1C(F)(F)F)NC(=O)CC(c1cccc(-c3cnc(C4CC4)cc3C)c1)=N2 [Example 247, 4-[3-(6-Cyclopropyl-4-methyl-pyridin-3-yl)-phenyl]-7-ethoxy-8-trifluoromethyl-1,3-dihydro-benzo[b][1,4]diazepin-2-one]
3 | 220 to 233 °C | O=C1CC(c2cccc(-c3ccncn3)c2)=Nc2ccc(Cl)cc2N1 [Example 299, 8-Chloro-4-(3-pyrimidin-4-yl-phenyl)-1,3-dihydro-benzo[b][1,4]diazepin-2-one]
4 | 220 °C | Cc1cc(-c2cccc(C3=Nc4cc(NCC(C)C)c(Cl)cc4NC(=O)C3)c2)ccn1 [Example 79, 8-Chloro-7-isobutylamino-4-[3-(2-methyl-pyridin-4-yl)-phenyl]-1,3-dihydro-benzo[b][1,4]diazepin-2-one]
5 | 218 °C | Cc1cc(-c2cccc(C3=Nc4cc(CO)c(C(F)(F)F)cc4NC(=O)C3)c2)ccn1 [Example 261, 7-Hydroxymethyl-4-[3-(2-methyl-pyridin-4-yl)-phenyl]-8-trifluoromethyl-1,3-dihydro-benzo[b][1,4]diazepin-2-one]
6 | 166 to 169 °C | CCOc1ccc2c(c1)N=C(c1cccc(-c3cccnc3)c1)CC(=O)N2 [Example 162, 7-Ethoxy-4-(3-pyridin-3-yl-phenyl)-1,3-dihydro-benzo[b][1,4]diazepin-2-one]
7 | 209 to 210 °C | CCCOc1cc2c(cc1C(F)(F)F)NC(=O)CC(c1cccc(-c3ccc(C4CC4)nc3)c1)=N2 [Example 216, 4-[3-(6-Cyclopropyl-pyridin-3-yl)-phenyl]-7-propoxy-8-trifluoromethyl-1,3-dihydro-benzo[b][1,4]diazepin-2-one]
8 | 211 to 213 °C | COCCNc1cc(-c2cccc(C3=Nc4cc(C)c(Cl)cc4NC(=O)C3)c2)ncn1 [Example 334, 8-Chloro-4-{3-[6-(2-methoxy-ethylamino)-pyrimidin-4-yl]-phenyl}-7-methyl-1,3-dihydro-benzo[b][1,4]diazepin-2-one]
9 | 181 °C | CC(C)Cc1cc(-c2cccc(C3=Nc4ccc(C(F)(F)F)cc4NC(=O)C3)c2)ccn1 [Example 281, 4-[3-(2-Isobutyl-pyridin-4-yl)-phenyl]-8-trifluoromethyl-1,3-dihydro benzo[b][1,4]diazepin-2-one]
10 | 241 to 243 °C | CNc1nc(C)cc(-c2cccc(C3=Nc4cc(C)c(C(F)(F)F)cc4NC(=O)C3)c2)n1 [Example 318, 7-Methyl-4-[3-(6-methyl-2-methylamino-pyrimidin-4-yl)-phenyl]-8-trifluoromethyl-1,3-dihydro-benzo[b][1,4]diazepin-2-one]
11 | 226 to 227 °C | O=C1CC(c2cccc(-c3cccnc3)c2)=Nc2cc(Cl)c(C(F)(F)F)cc2N1 [Example 183, 7-Chloro-4-(3-pyridin-3-yl-phenyl)-8-trifluoromethyl-1,3-dihydro-benzo[b][1,4]diazepin-2-one]
12 | 201 °C | CCCN(C)c1cc2c(cc1C(F)(F)F)NC(=O)CC(c1cccc(-c3cnccn3)c1)=N2 [Example 102, 7-(Methyl-propyl-amino)-4-(3-pyrazin-2-yl-phenyl)-8-trifluoromethyl-1,3-dihydro-benzo[b][1,4]diazepin-2-one]
13 | 143 °C | CC(C)N(C)c1cc2c(cc1Cl)NC(=O)CC(c1cccc(-c3ccnc(CO)c3)c1)=N2 [Example 367, 8-Chloro-4-[3-(2-hydroxymethyl-pyridin-4-yl)-phenyl]-7-(isopropyl-methyl-amino)-1,3-dihydro-benzo[b][1,4]diazepin-2-one]
14 | 204 °C | CC(C)Cc1cc(-c2cccc(C3=Nc4cc(Cl)c(Cl)cc4NC(=O)C3)c2)ccn1 [Example 279, 7,8-Dichloro-4-[3-(2-isobutyl-pyridin-4-yl)-phenyl]-1,3-dihydro-benzo[b][1,4]diazepin-2-one]
15 | 202 °C | Cc1cc(-c2cccc(C3=Nc4cc(C)c(Cl)cc4NC(=O)C3)c2)cc(CO)n1 [Example 401, 8-Chloro-4-[3-(2-hydroxymethyl-6-methyl-pyridin-4-yl)-phenyl]-7-methyl-1,3-dihydro-benzo[b][1,4]diazepin-2-one]
16 | 200 °C | Cc1cc(-c2cccc(C3=Nc4cc(C)c(C(F)(F)F)cc4NC(=O)C3)c2)cc(CO)n1 [Example 402, 4-[3-(2-Hydroxymethyl-6-methyl-pyridin-4-yl)-phenyl]-7-methyl-8-trifluoromethyl-1,3-dihydro-benzo[b][1,4]diazepin-2-one]
17 | 193 to 196 °C | COc1ccc2c(c1)NC(=O)CC(c1cccc(-c3ccncc3)c1)=N2 [Example 38, 8-Methoxy-4-(3-pyridin-4-yl-phenyl)-1,3-dihydro-benzo[b][1,4]diazepin-2-one]
18 | 205 °C | Cc1cc2c(cc1C(F)(F)F)NC(=O)CC(c1cccc(-c3ccnc(C(C)C)c3)c1)=N2 [Example 271, 4-[3-(2-Isopropyl-pyridin-4-yl)-phenyl]-7-methyl-8-trifluoromethyl-1,3-dihydro benzo[b][1,4]diazepin-2-one]
19 | 229 °C | Cc1cc2c(cc1Cl)NC(=O)CC(c1cccc(-c3cccnc3)c1)=N2 [Example 26, 8-Chloro-7-methyl-4-(3-pyridin-3-yl-phenyl)-1,3-dihydro-benzo[b][1,4]diazepin-2-one]

The remaining lines, values behind:

Row | Structure (SMILES) | melting point
20 | Cc1ncccc1-c1cccc(C2=Nc3ccc(-n4cccc4)cc3NC(=O)C2)c1 [Example 289, 4-[3-(2-Methyl-pyridin-3-yl)-phenyl]-8-pyrrol-1-yl-1,3-dihydro-benzo[b][1,4]diazepin-2-one] | 215 to 216 °C
21 | Cc1cc2c(cc1Cl)N=C(c1cccc(-c3cnccn3)c1)CC(=O)N2 [Example 103, 7-Chloro-8-methyl-4-(3-pyrazin-2-yl-phenyl)-1,3-dihydro-benzo[b][1,4]diazepin-2-one] | 218 °C
22 | O=C1CC(c2cccc(-c3cccnc3)c2)=Nc2ccc(C#Cc3ccc(F)cc3)cc2N1 [Example 174, 8-(4-Fluoro-phenylethynyl)-4-(3-pyridin-3-yl-phenyl)-1,3-dihydro-benzo[b][1,4]diazepin-2-one] | 228 to 230 °C
23 | COCc1cc(-c2cccc(C3=Nc4cc(C)c(Cl)cc4NC(=O)C3)c2)ccn1 [Example 399, 8-Chloro-4-[3-(2-methoxymethyl-pyridin-4-yl)-phenyl]-7-methyl-1,3-dihydro-benzo[b][1,4]diazepin-2-one] | 216 °C
24 | Cc1cc2c(cc1C(F)(F)F)NC(=O)CC(c1cccc(-c3cccnc3C3CC3)c1)=N2 [Example 221, 4-[3-(2-Cyclopropyl-pyridin-3-yl)-phenyl]-7-methyl-8-trifluoromethyl-1,3-dihydro-benzo[b][1,4]diazepin-2-one] | 173 to 175 °C
25 | Cc1cc(-c2cccc(C3=Nc4cc(C5CC5)c(C(F)(F)F)cc4NC(=O)C3)c2)ccn1 [Example 350, 7-Cyclopropyl-4-[3-(2-methyl-pyridin-4-yl)-phenyl]-8-trifluoromethyl-1,3-dihydro-benzo[b][1,4]diazepin-2-one] | 205 to 211 °C
26 | Cc1cc2c(cc1Cl)NC(=O)CC(c1cccc(-c3ccncn3)c1)=N2 [Example 297, 8-Chloro-7-methyl-4-(3-pyrimidin-4-yl-phenyl)-1,3-dihydro-benzo[b][1,4]diazepin-2-one] | 242 to 247 °C
27 | Cc1cc2c(cc1C(F)(F)F)NC(=O)CC(c1cccc(-c3ccnc(C(F)(F)F)c3)c1)=N2 [Example 265, 7-Methyl-8-trifluoromethyl-4-[3-(2-trifluoromethyl-pyridin-4-yl)-phenyl]-1,3-dihydro-benzo[b][1,4]diazepin-2-one] | 247 °C
28 | COCCOc1cc2c(cc1C(F)(F)F)NC(=O)CC(c1cccc(-c3ccnc(C)c3)c1)=N2 [Example 242, 7-(2-Methoxy-ethoxy)-4-[3-(2-methyl-pyridin-4-yl)-phenyl]-8-trifluoromethyl-1,3-dihydro-benzo[b][1,4]diazepin-2-one] | 198 to 199 °C
29 | O=C1CC(c2cccc(-c3ccc(C4CC4)nc3)c2)=Nc2ccc(OC(F)(F)F)cc2N1 [Example 207, 4-[3-(6-Cyclopropyl-pyridin-3-yl)-phenyl]-8-trifluoromethoxy-1,3-dihydro-benzo[b][1,4]diazepin-2-one] | 190 to 191 °C
30 | Cc1cc(-c2cccc(C3=Nc4cc(C)c(Cl)cc4NC(=O)C3)c2)nc(N)n1 [Example 316, 4-[3-(2-Amino-6-methyl-pyrimidin-4-yl)-phenyl]-8-chloro-7-methyl-1,3-dihydro-benzo[b][1,4]diazepin-2-one] | 242 to 243 °C
31 | Cc1cc(-c2cccc(C3=Nc4ccc(-n5cccc5)cc4NC(=O)C3)c2)ncn1 [Example 314, 4-[3-(6-Methyl-pyrimidin-4-yl)-phenyl]-8-pyrrol-1-yl-1,3-dihydro-benzo[b][1,4]diazepin-2-one] | 242 to 243 °C
32 | O=C1CC(c2cccc(-c3ccccn3)c2)=Nc2cc(OCC(F)(F)F)c(C(F)(F)F)cc2N1 [Example 44, 4-(3-Pyridin-2-yl-phenyl)-7-(2,2,2-trifluoro-ethoxy)-8-trifluoromethyl-1,3-dihydro-benzo[b][1,4]diazepin-2-one] | 214 °C
33 | CCc1cc(-c2cccc(C3=Nc4cc(Cl)c(C(F)(F)F)cc4NC(=O)C3)c2)ccn1 [Example 156, 7-Chloro-4-[3-(2-ethyl-pyridin-4-yl)-phenyl]-8-trifluoromethyl-1,3-dihydro benzo[b][1,4]diazepin-2-one] | 217 °C
34 | Cc1cc2c(cc1Cl)N=C(c1cccc(-c3ccncc3)c1)CC(=O)N2 [Example 66, 7-Chloro-8-methyl-4-(3-pyridin-4-yl-phenyl)-1,3-dihydro-benzo[b][1,4]diazepin-2-one] | 236 °C
35 | O=C1CC(c2cccc(-c3ccncn3)c2)=Nc2cc(Cl)c(Cl)cc2N1 [Example 300, 7,8-Dichloro-4-(3-pyrimidin-4-yl-phenyl)-1,3-dihydro-benzo[b][1,4]diazepin-2-one] | 234 to 237 °C
